{"source": "patent US5449612A", "about": "“Process for identifying candida by means of chromogenic substances” (Serbio, priority 1990, dated 1995)", "key": {"β-D-glucosidase": {"system": "β-D-glucosidase", "details": "Casal et al. 1983; Polachek et al. 1987; cited from earlier work"}, "Candida krusei": {"system": "Candida krusei", "assay": "Tests on substrates against Candida krusei, colour reading on buffered gelose; on Reading at 24 h: key: -: none; +: weak; ++: moderate; +++: intense; ++++: very intense", "format": "cell-based"}, "T. glabrata [1]": {"system": "T. glabrata", "assay": "Tests on substrates against T. glabrata, colour reading on buffered gelose; further: key: -: none; +: weak; ++: moderate; +++: intense; ++++: very intense", "format": "cell-based, Torulopsis glabrata", "details": "pH 6"}, "Candida albicans": {"system": "Candida albicans", "assay": "Tests on substrates against Candida albicans, colour reading on buffered gelose", "format": "cell-based", "details": "Table I; medium pH 6.0, YNB, glucose, agar, gentamycin; coloration or fluorescence"}, "T. glabrata [2]": {"system": "T. glabrata", "assay": "Diagnosis from isolated colonies on gelose 2/5", "format": "cell-based, Torulopsis glabrata"}, "C. krusei": {"system": "C. krusei", "assay": "Diagnosis from isolated colonies on gelose 2/5", "format": "cell-based, Candida krusei", "description": "According to the afore-mentioned best mode of carrying out the invention, a culture medium containing the following ingredients is prepared; it is called gelose 2 below and is buffered to pH 6.0.\nAccording to the afore-mentioned best mode of carrying out the invention, a culture medium containing the following ingredients is prepared; it is called gelose 5 below and is buffered to pH 6.0.\nSeveral isolated strains of C. albicans, C. tropicalis, C. krusei, C. guillermondii, C. pseudotropicalis, C. parapsilosis, C. zeylanoides, T. glabrata and Trichosporon cutaneum were inoculated and incubated on the media of Examples 1 to 5. […] Part of the results obtained has been collated in Table VI below, where the TTC column relates to results of tests undertaken separately on a standard gelose medium containing TTC.\nSeveral isolated strains of C. albicans, C. tropicalis, C. krusei, C. guillermondii and T. glabrata were inoculated and incubated on the media of Example 2 [containing either the substrate N-Ac-β-D-galactosaminide-PNP of the prior art, or the substrates H-L-PropNA.AcOH (specific for C. albicans), EM-L-Phg-L-ArgpNA.AcOH (specific for T. glabrata) and H-Gly-L-Pro-L-Arg-pNA.2AcOH (specific for C. krusei)]and of Example 5 (containing the substrate H-L-Pro-pNA.AcOH)."}, "C. albicans": {"system": "C. albicans", "assay": "Diagnosis from isolated colonies on gelose 2/5", "format": "cell-based, Candida albicans"}, "Candida tropicalis": {"system": "Candida tropicalis", "assay": "Tests on substrates against Candida tropicalis, colour reading on buffered gelose", "format": "cell-based"}, "C. tropicalis": {"system": "C. tropicalis", "assay": "Diagnosis from isolated colonies on gelose 2/5", "format": "cell-based, Candida tropicalis"}, "[3]": {"system": "isolated strains of Candida albicans, Candida guillermondii, Candida intermedia, Candida parapsilosis, Candida pseudotropicalis, Candida stellatoidea, Candida …", "details": "YEAST-IDENT, liquid medium, 4 h at 37° C.; cited from earlier work"}}, "note": "Residues, ends and D or L forms follow the SMILES beside them. *: point of attachment. pNA = O=[N+]([O-])c1ccc(N*)cc1", "data": [{"smiles": "OC[C@H]1O[C@@H](Oc2ccc3cc(Br)ccc3c2)[C@H](O)[C@@H](O)[C@@H]1O", "note": "[(6-bromo-β-naphthyl)-β-D-glucopyranoside]", "values": [{"measurement": "reaction with isolated strains", "setting": "β-D-glucosidase", "result": "positive reaction"}]}, {"smiles": "N=C(N)NCCC[C@H](NC(=O)[C@@H]1CCCN1C(=O)CN)C(=O)Nc1ccc([N+](=O)[O-])cc1", "note": "[H-Gly-L-Pro-L-Arg-pNA.2AcOH] (H-Gly-Pro-Arg-pNA)", "values": [{"measurement": "Specificity: interference with C. krusei", "setting": "Candida krusei; Table I", "result": "(c)"}, {"measurement": "Reading at 24 h", "setting": "Candida krusei; Table IV, medium pH 6.0", "result": "++++"}, {"measurement": "T. GLABRATA reading at 24 h", "setting": "T. glabrata [1]", "result": "-"}, {"measurement": "Reading at 24 h", "setting": "Candida albicans", "result": "++++"}, {"measurement": "Reading at t = 24 h", "setting": "T. glabrata [2]", "result": "-"}, {"measurement": "Reading at t = 24 h", "setting": "C. krusei", "result": "+++"}, {"measurement": "Reading at t = 24 h", "setting": "C. albicans", "result": "-"}, {"measurement": "Specificity: interference with C. tropicalis", "setting": "Candida tropicalis; Table I", "result": "(b)"}, {"measurement": "Reading at 24 h", "setting": "Candida tropicalis; Table II, medium pH 6.0, YNB, glucose, agar, gentamycin", "result": "++++"}, {"measurement": "C. TROPICALIS reading at 24 h", "setting": "Candida tropicalis; Table III, medium pH 6.0", "result": "++++"}, {"measurement": "Specificity: interference with C. tropicalis", "setting": "Candida tropicalis; Table IV", "result": "(a)"}, {"measurement": "Reading at t = 24 h", "setting": "C. tropicalis", "result": "++"}]}, {"smiles": "O=C(Nc1ccc2ccccc2c1)[C@@H]1CCCN1", "note": "[H-L-Pro-NA]", "values": [{"measurement": "reaction with isolated strains", "setting": "[3]", "result": "positive reaction"}]}]}
